In brackets after ≈: the same amount, converted by molar mass. Read-outs that look alike come from different tables or passages of the source. Bridge positions count the residues as written; N and C are the ends. Square brackets hold non-standard residues; d marks the D form. Peptide text beside a SMILES is read from it. * marks the point of attachment. ξ: configuration not given here. dPhe(4-CN) = N#Cc1ccc(C[C@@H](N)C(=O)O)cc1; Octanoyl(6-Me) = CCC(C)CCCCC(=O)*; X23 = NCC[C@H](OCc1ccccc1)C(=O)*; dCha = N[C@H](CC1CCCCC1)C(=O)O; Thr(3ξ) = CC(O)[C@H](N)C(=O)O; Dab = NCC[C@H](N)C(=O)O; Dap = NC[C@H](N)C(=O)O; X18 = CCCCC(CCN)C(=O)*
Experiments:
Type in all cases: cell-based
Klebsiella pneumoniae = tested on: Klebsiella pneumoniae
Method in brief: (§1)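 Strain panels of up to nine per species, with resistant and Polymyxin-tolerant strains included, were used for susceptibility testing; read-out was MIC (μg/mL).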

Escherichia coli = tested on: Escherichia coli
Method in brief: as §1

Acinetobacter baumannii = tested on: Acinetobacter baumannii
Method in brief: as §1

Pseudomonas aeruginosa = tested on: Pseudomonas aeruginosa
Method in brief: as §1

Row | SMILES | MIC K. pneumoniae 063 (Klebsiella pneumoniae) | MIC K. pneumoniae 065 (Klebsiella pneumoniae) | MIC K. pneumoniae ATCC 4352 (Klebsiella pneumoniae) | MIC E. coli 058 (Escherichia coli) | MIC E. coli 061 (Escherichia coli) | MIC E. coli ATCC 25922 (Escherichia coli) | MIC A. baumanii 053 (Acinetobacter baumannii) | MIC A. baumanii 056 (Acinetobacter baumannii) | MIC A. baumanii ATCC BAA-747 (Acinetobacter baumannii) | MIC P. aeruginosa 068 (Pseudomonas aeruginosa) | MIC P. aeruginosa 070 (Pseudomonas aeruginosa) | MIC P. aeruginosa ATCC 27853 (Pseudomonas aeruginosa) | MIC K. pneumoniae ATCC 13882 (Klebsiella pneumoniae) | MIC A. baumanii NCTC 13424 (Acinetobacter baumannii) | MIC P. aeruginosa CCUG 59347 (Pseudomonas aeruginosa) | also measured
1 | CCCCCC/C=C/c1ccc(C[C@H]2NC(=O)[C@H](CCN)NC(=O)[C@@H](NC(=O)[C@H](CN)NC(=O)[C@@H](NC(=O)C3CNCC(CC(C)C)C3)C(C)O)CCNC(=O)[C@H]([C@@H](C)O)NC(=O)[C@H](CCN)NC(=O)[C@H](CCN)NC(=O)[C@H](CC(C)C)NC2=O)cc1 (single isomer, unassigned; isomer 1) [Example 17, (trans-5-(isobutyl-piperidine)-3-carbonyl L-Thr-L-Dap-polymyxin [D-(4-(E)-oct-1-enyl) Phe]-6]heptapeptide Isomer 1] | 16 µg/mL (≈ 13 µM) | 4 µg/mL (≈ 3.26 µM) | 2 µg/mL (≈ 1.63 µM) | 2 µg/mL (≈ 1.63 µM) | 2 µg/mL (≈ 1.63 µM) | 2 µg/mL (≈ 1.63 µM) | 2 µg/mL (≈ 1.63 µM) | 2 µg/mL (≈ 1.63 µM) | 2 µg/mL (≈ 1.63 µM) | 4 µg/mL (≈ 3.26 µM) | 4 µg/mL (≈ 3.26 µM) | 2 µg/mL (≈ 1.63 µM) |  |  |  | MIC K. pneumoniae 062 (Klebsiella pneumoniae): 4 µg/mL (≈ 3.26 µM); MIC K. pneumoniae 064 (Klebsiella pneumoniae): 8 µg/mL (≈ 6.52 µM); MIC K. pneumoniae 067 (Klebsiella pneumoniae): 32 µg/mL (≈ 26.1 µM); MIC E. coli 059 (Escherichia coli): 2 µg/mL (≈ 1.63 µM); MIC E. coli 060 (Escherichia coli): 2 µg/mL (≈ 1.63 µM)
2 | CCCCC(CCN)C(=O)N[C@H](C(=O)N[C@@H](CCN)C(=O)N[C@H]1CCNC(=O)[C@H]([C@@H](C)O)NC(=O)[C@H](CCN)NC(=O)[C@H](CCN)NC(=O)[C@H](CC(C)C)NC(=O)[C@@H](CC2CCCCC2)NC(=O)[C@H](CCN)NC1=O)C(C)O (stereo partly drawn) [Example 40, 2-(2-aminoethyl) hexanoyl [D-cyclohexylalanine]-6 nonapeptide.] (X18-[Thr(3ξ)][Dab][Dab][Dab][dCha]L[Dab][Dab]T; lactam 3-C) | 16 µg/mL (≈ 14.4 µM) | 2 µg/mL (≈ 1.8 µM) |  | 8 µg/mL (≈ 7.2 µM) | 16 µg/mL (≈ 14.4 µM) | 0.125 µg/mL (≈ 0.113 µM) | >64 µg/mL | 64 µg/mL (≈ 57.6 µM) | 0.06 µg/mL (≈ 0.054 µM) | 4 µg/mL (≈ 3.6 µM) | 8 µg/mL (≈ 7.2 µM) | 0.5 µg/mL (≈ 0.45 µM) | 0.25 µg/mL (≈ 0.225 µM) | 0.125 µg/mL (≈ 0.113 µM) | 0.5 µg/mL (≈ 0.45 µM) | MIC E. coli NCTC 9001 (Escherichia coli): 0.03 µg/mL (≈ 0.027 µM)
3 | CC(C)C[C@@H]1NC(=O)[C@@H](CC2CCCCC2)NC(=O)[C@H](CCN)NC(=O)[C@@H](NC(=O)[C@H](CCN)NC(=O)[C@@H](NC(=O)CC(CN)C2CCCCC2)[C@@H](C)O)CCNC(=O)[C@H]([C@@H](C)O)NC(=O)[C@H](CCN)NC(=O)[C@H](CCN)NC1=O (single isomer, unassigned; isomer 1) [Example 86, 4-amino-3-cyclohexylbutanoyl polymyxin [D-cyclohexylalanine-6]nonapeptide. Isomer 1] |  |  |  |  |  |  |  |  |  |  |  |  |  |  |  | MIC K. pneumoniae 063 (Klebsiella pneumoniae; strain 063): >64 µg/mL; MIC K. pneumoniae 065 (Klebsiella pneumoniae; strain 065): 8 µg/mL (≈ 7.04 µM); MIC K. pneumoniae ATCC 13882 (Klebsiella pneumoniae; strain ATCC 13882): 0.5 µg/mL (≈ 0.44 µM); MIC E. coli 058 (Escherichia coli; strain 058): 8 µg/mL (≈ 7.04 µM); MIC E. coli 061 (Escherichia coli; strain 061): 32 µg/mL (≈ 28.2 µM); MIC E. coli ATCC 25922 (Escherichia coli; strain ATCC 25922): 0.125 µg/mL (≈ 0.11 µM); MIC E. coli NCTC 9001 (Escherichia coli; strain NCTC 9001): 0.06 µg/mL (≈ 0.0528 µM); MIC A. baumanii 053 (Acinetobacter baumannii; strain 053): >64 µg/mL; MIC A. baumanii 056 (Acinetobacter baumannii; strain 056): 64 µg/mL (≈ 56.3 µM); MIC A. baumanii ATCC BAA-747 (Acinetobacter baumannii; strain ATCC BAA-747): 0.125 µg/mL (≈ 0.11 µM); MIC A. baumanii NCTC 13424 (Acinetobacter baumannii; strain NCTC 13424): 0.125 µg/mL (≈ 0.11 µM); MIC P. aeruginosa 070 (Pseudomonas aeruginosa; strain 070): 8 µg/mL (≈ 7.04 µM); MIC P. aeruginosa ATCC 27853 (Pseudomonas aeruginosa; strain ATCC 27853): 0.25 µg/mL (≈ 0.22 µM); MIC P. aeruginosa CCUG 59347 (Pseudomonas aeruginosa; strain CCUG 59347): 0.5 µg/mL (≈ 0.44 µM)
4 | CC(C)CC(CN)C(=O)N[C@H](C(=O)N[C@@H](CN)C(=O)N[C@H]1CCNC(=O)[C@H]([C@@H](C)O)NC(=O)[C@H](CCN)NC(=O)[C@H](CCN)NC(=O)[C@H](CC(C)C)NC(=O)[C@@H](Cc2ccc(-c3ccccc3)cc2)NC(=O)[C@H](CCN)NC1=O)C(C)O (single isomer, unassigned; isomer 1) [Example 15, 2-aminomethyl-4-mehtly pentanoyl polymyxin L-Thr-L-Dap-polymyxin [D-(4-phenyl Phe)]-6]heptapeptide. Isomer 1] | >64 µg/mL | 64 µg/mL (≈ 55.5 µM) | 0.5 µg/mL (≈ 0.434 µM) | 32 µg/mL (≈ 27.8 µM) | 64 µg/mL (≈ 55.5 µM) | 1 µg/mL (≈ 0.868 µM) | >64 µg/mL | >64 µg/mL | 8 µg/mL (≈ 6.94 µM) | 16 µg/mL (≈ 13.9 µM) | 32 µg/mL (≈ 27.8 µM) | 1 µg/mL (≈ 0.868 µM) |  |  |  | MIC K. pneumoniae 062 (Klebsiella pneumoniae): >64 µg/mL; MIC K. pneumoniae 064 (Klebsiella pneumoniae): >64 µg/mL; MIC K. pneumoniae 066 (Klebsiella pneumoniae): 64 µg/mL (≈ 55.5 µM); MIC K. pneumoniae 067 (Klebsiella pneumoniae): >64 µg/mL; MIC E. coli 059 (Escherichia coli): 16 µg/mL (≈ 13.9 µM); MIC E. coli 060 (Escherichia coli): 32 µg/mL (≈ 27.8 µM)
5 | CCC(C)CCCCC(=O)N[C@@H](CCN)C(=O)N[C@H](C(=O)N[C@@H](CCN)C(=O)N[C@H]1CCNC(=O)[C@H]([C@@H](C)O)NC(=O)[C@H](CCN)NC(=O)[C@H](CCN)NC(=O)[C@H](CC(C)C)NC(=O)[C@@H](Cc2ccc(C#N)cc2)NC(=O)[C@H](CCN)NC1=O)C(C)O (stereo partly drawn) [Example 24, Polymyxin B[D-(4-cyano)Phe]-6] ({Octanoyl(6-Me)}-[Dab][Thr(3ξ)][Dab][Dab][Dab][dPhe(4-CN)]L[Dab][Dab]T; lactam 4-C) | 64 µg/mL (≈ 52.1 µM) | 8 µg/mL (≈ 6.51 µM) | 0.125 µg/mL (≈ 0.102 µM) | 4 µg/mL (≈ 3.26 µM) | 16 µg/mL (≈ 13 µM) | 0.125 µg/mL (≈ 0.102 µM) | >64 µg/mL | >64 µg/mL | 0.25 µg/mL (≈ 0.203 µM) | 32 µg/mL (≈ 26 µM) | >64 µg/mL | 0.25 µg/mL (≈ 0.203 µM) |  | 0.25 µg/mL (≈ 0.203 µM) | 0.5 µg/mL (≈ 0.407 µM) | 
6 | CC(C)C[C@@H]1NC(=O)[C@@H](CC2CCCCC2)NC(=O)[C@H](CCN)NC(=O)[C@@H](NC(=O)[C@H](CCN)NC(=O)[C@@H](NC(=O)C(CN)Cc2ccccc2)C(C)O)CCNC(=O)[C@H]([C@@H](C)O)NC(=O)[C@H](CCN)NC(=O)[C@H](CCN)NC1=O (single isomer, unassigned; isomer 2) [Example 53, 3-amino-2-benzylpropanoyl polymyxin [D-cyclohexylalanine]-6 nonapeptide. Isomer 2] | 64 µg/mL (≈ 56.6 µM) | 4 µg/mL (≈ 3.54 µM) |  | 4 µg/mL (≈ 3.54 µM) | 32 µg/mL (≈ 28.3 µM) | 0.25 µg/mL (≈ 0.221 µM) | 64 µg/mL (≈ 56.6 µM) | 64 µg/mL (≈ 56.6 µM) | 0.5 µg/mL (≈ 0.442 µM) | 8 µg/mL (≈ 7.08 µM) | 8 µg/mL (≈ 7.08 µM) | 0.25 µg/mL (≈ 0.221 µM) | 0.25 µg/mL (≈ 0.221 µM) | 0.5 µg/mL (≈ 0.442 µM) | 0.5 µg/mL (≈ 0.442 µM) | MIC E. coli NCTC 9001 (Escherichia coli): 0.125 µg/mL (≈ 0.111 µM)
7 | CC(C)C[C@@H]1NC(=O)[C@@H](CC2CCCCC2)NC(=O)[C@H](CCN)NC(=O)[C@@H](NC(=O)[C@H](CN)NC(=O)[C@@H](NC(=O)[C@H](CCN)OCc2ccccc2)C(C)O)CCNC(=O)[C@H]([C@@H](C)O)NC(=O)[C@H](CCN)NC(=O)[C@H](CCN)NC1=O (stereo partly drawn) [Example 48, (S)-4-amino-2-(benzyloxy) butanoyl L-Thr-L-Dap-polymyxin [D-cyclohexylalanine]-6 heptapeptide.] (X23-[Thr(3ξ)][Dap][Dab][Dab][dCha]L[Dab][Dab]T; lactam 3-C) | 64 µg/mL (≈ 55.8 µM) | 5 µg/mL (≈ 4.36 µM) |  | 4 µg/mL (≈ 3.49 µM) | 32 µg/mL (≈ 27.9 µM) | 0.125 µg/mL (≈ 0.109 µM) | >64 µg/mL | 32 µg/mL (≈ 27.9 µM) | 0.125 µg/mL (≈ 0.109 µM) | 8 µg/mL (≈ 6.98 µM) | 16 µg/mL (≈ 14 µM) | 0.25 µg/mL (≈ 0.218 µM) | 0.125 µg/mL (≈ 0.109 µM) | 0.25 µg/mL (≈ 0.218 µM) | 0.25 µg/mL (≈ 0.218 µM) | 

Source: patent US12146004B2, “Polymyxin compounds and uses thereof” (priority 2014, dated 2024)
